Source: patent publication US12427144B2, “Compounds and methods for the targeted degradation of androgen receptor” (Arvinas Operations, Inc., priority 2019, dated 2025)

Target: T1, Androgen Receptor (AR) (Homo sapiens, UniProt P10275)
T1 construct: endogenous in cells; host or cells: VCaP
T1 sequence (P10275 1-920): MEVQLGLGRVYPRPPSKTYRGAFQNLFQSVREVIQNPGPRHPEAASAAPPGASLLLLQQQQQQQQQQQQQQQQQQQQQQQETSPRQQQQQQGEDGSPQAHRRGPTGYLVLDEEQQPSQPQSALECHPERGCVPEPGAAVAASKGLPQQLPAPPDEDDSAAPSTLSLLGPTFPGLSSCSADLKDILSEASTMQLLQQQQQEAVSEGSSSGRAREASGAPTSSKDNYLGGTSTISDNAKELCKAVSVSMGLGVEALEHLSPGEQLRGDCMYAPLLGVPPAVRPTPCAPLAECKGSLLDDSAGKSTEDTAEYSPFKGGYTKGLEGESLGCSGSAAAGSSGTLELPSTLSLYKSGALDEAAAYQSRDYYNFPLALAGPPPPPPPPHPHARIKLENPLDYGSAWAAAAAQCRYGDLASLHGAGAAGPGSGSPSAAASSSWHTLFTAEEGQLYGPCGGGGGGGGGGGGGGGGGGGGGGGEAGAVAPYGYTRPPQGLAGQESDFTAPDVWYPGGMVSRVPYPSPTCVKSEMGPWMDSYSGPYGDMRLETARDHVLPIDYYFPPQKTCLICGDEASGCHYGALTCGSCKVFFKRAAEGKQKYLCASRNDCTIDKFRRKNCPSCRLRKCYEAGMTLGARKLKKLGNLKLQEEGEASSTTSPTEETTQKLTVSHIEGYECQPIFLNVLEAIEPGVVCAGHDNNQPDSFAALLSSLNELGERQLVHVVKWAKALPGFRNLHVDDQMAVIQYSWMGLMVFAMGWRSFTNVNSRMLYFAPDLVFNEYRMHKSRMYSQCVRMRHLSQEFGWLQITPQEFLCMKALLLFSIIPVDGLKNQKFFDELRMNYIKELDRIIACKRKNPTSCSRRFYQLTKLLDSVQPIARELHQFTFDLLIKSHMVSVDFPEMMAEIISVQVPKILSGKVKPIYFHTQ
Experiment: AR immunofluorescence staining, high content imager, VCaP cells
Assay type: cell-based
Settings: for DC50: AR degradation by immunofluorescence; for Dmax: maximal AR degradation
Description: AR Immunofluorescence Staining of Cells for the High Content Imager was performed as follows: Following treatment of the cells with compound (using the central 60 wells of a 96-well plate), media was removed by aspiration, followed by addition of 50 μL per well of 4% paraformaldehyde (PFA) in PBS supplemented with 2 mM MgCl2 and 2 mM CaCl2. Fixed cells were incubated at RT for 15 minutes. For particularly low adherence cell lines (e.g., VCaP), a 2× solution of 8% PFA was added directly to wells instead. Cells were washed once with 200 μL PBS/well. To permeabilize cells 50 μL/well of 0.1% Triton X-100 in PBS was added and incubated for 5 minutes. Cells were washed once with 200 μL PBSS/well. 100 μL/well of Licor Odyssey Blocking Buffer was added for 1 hour at 20° C. Wells were aspirated and AR antibody (1:1000 in Licor Odyssey blocking buffer; 50 μL/well; CST 5153s) was added. Plates were incubated overnight at 4° C. Plates were washed 3 times with 200 EL PBS/well. The appropriate secondary antibody was added (50 μL/well; diluted in Licor Odyssey blocking buffer) and incubated for 1 hour at RT in the dark as prepared below using Anti-rabbit FITC (1:5000; […]) and Phalloidin-Alexafluor 648 (1:500; […]). Cells were washed once with 200 μL PBS/well. 50 μL DAPI or Hoechst 33342 diluted 1:1000 in Licor Odyssey blocking buffer was added to the wells. Cells were washed 3 times with 200 μL PBS/well. The plates were covered with a clear plastic sealer and refrigerated in the dark until ready to analyze. The cells were analyzed using a Molecular Devices IXM high content imager and analyzed using Molecular Devices metaXpress software suite.

DC50	Dmax	SMILES
< 1 nM	≥ 70%	N#Cc1ccc(O[C@H]2CC[C@H](NC(=O)c3ccc(N4CCC(CN5CCN(c6ccc(C(=O)NC7CCC(=O)NC7=O)c(F)c6)CC5)CC4)nn3)CC2)cc1Cl (stereo partly drawn) [Compound 26, N-((1R,4R)-4-(3-chloro-4-cyanophenoxy)cyclohexyl)-6-(4-((4-(4-((2,6-dioxopiperidin-3-yl)carbamoyl)-3-fluorophenyl)piperazin-1-yl)methyl)piperidin-1-yl)pyridazine-3-carboxamide]
< 1 nM	50 to 70%	Cc1cc(O[C@H]2C(C)(C)[C@H](NC(=O)c3ccc(N4CCOC(CN(C(C)C)[C@H]5C[C@@H](Oc6ccc(F)c(C(=O)N[C@H]7CCC(=O)NC7=O)c6)C5)C4)cc3)C2(C)C)cc(C)c1C#N (stereo partly drawn) [Compound 61, 4-(2-{[(propan-2-yl)[(1r,3r)-3-(3-{[(3S)-2,6-dioxopiperidin-3-yl]carbamoyl}-4-fluorophenoxy)cyclobutyl]amino]methyl}morpholin-4-yl)-N-[(1r,3r)-3-(4-cyano-3,5-dimethylphenoxy)-2,2,4,4-tetramethylcyclobutyl]benzamide]
≥ 100 nM	< 50%	CCN(C(=O)c1ccc(N2CCN(CC3CCN(c4ccc(C(=O)N[C@H]5CC[C@H](Oc6ccc(C#N)c(Cl)c6)CC5)nn4)CC3)CC2)cc1)C1CCC(=O)NC1=O (stereo partly drawn) [Compound 32, N-((1R,4R)-4-(3-chloro-4-cyanophenoxy)cyclohexyl)-6-(4-((4-(4-((2,6-dioxopiperidin-3-yl)(ethyl)carbamoyl)phenyl)piperazin-1-yl)methyl)piperidin-1-yl)pyridazine-3-carboxamide]
< 1 nM	≥ 70%	COc1cc(O[C@H]2C(C)(C)[C@H](NC(=O)c3ccc(N4CCC(CN5CCN(c6cnc(C(=O)N[C@H]7CCC(=O)NC7=O)cn6)CC5)CC4)cc3)C2(C)C)ccc1C#N [Compound 37, 5-[4-[[1-[4-[[3-(4-cyano-3-methoxy-phenoxy)-2,2,4,4-tetramethyl-cyclobutyl]carbamoyl]phenyl]-4-piperidyl]methyl]piperazin-1-yl]-N-[(3S)-2,6-dioxo-3-piperidyl]pyrazine-2-carboxamide]
< 1 nM	≥ 70%	N#Cc1ccc(O[C@H]2CC[C@H](NC(=O)c3ccc(N4CCC(CN5CCN(c6ccc(C(=O)NC7CCC(=O)NC7=O)cc6)CC5)CC4)nn3)CC2)cc1Cl (stereo partly shown) [Compound 23, N-[4-(3-chloro-4-cyano-phenoxy)cyclohexyl]-6-[4-[[4-[4-[(2,6-dioxo-3-piperidyl)carbamoyl]phenyl]piperazin-1-yl]methyl]-1-piperidyl]pyridazine-3-carboxamide]
1 to 10 nM	< 50%	Cc1cc(O[C@H]2C(C)(C)[C@H](NC(=O)c3ccc(N4CCC(CN5CCOCCCCCOc6ccc(C(=O)NC7CCC(=O)NC7=O)cc6O[C@H]6C[C@H]5C6)CC4)cc3)C2(C)C)cc(C)c1C#N (stereo partly shown) [Compound 72, (1r,19r)-N-(2,6-dioxopiperidin-3-yl)-18-{[1-(4-{[(1r,3r)-3-(4-cyano-3,5-dimethylphenoxy)-2,2,4,4-tetramethylcyclobutyl]carbamoyl}phenyl)piperidin-4-yl]methyl}-2,9,15-trioxa-18-azatricyclo[17.1.1.0^3,8]henicosa-3(8),4,6-triene-5-carboxamide]
< 1 nM	≥ 70%	CC(C)N(CC1CCN(c2cnc(C(=O)N[C@H]3CC[C@H](Oc4ccc(C#N)c(Cl)c4)CC3)cn2)CC1)[C@H]1C[C@H](Oc2ccc(C(=O)NC3CCC(=O)NC3=O)nc2)C1 (stereo partly shown) [Compound 24, N-[4-(3-chloro-4-cyano-phenoxy)cyclohexyl]-5-[4-[[[3-[[6-[(2,6-dioxo-3-piperidyl)carbamoyl]-3-pyridyl]oxy]cyclobutyl]-isopropyl-amino]methyl]-1-piperidyl]pyrazine-2-carboxamide]
< 1 nM	≥ 70%	N#Cc1ccc(O[C@H]2CC[C@H](NC(=O)c3ccc(N4CCC(CN5CCN(c6ccc(C(=O)NC7CCC(=O)NC7=O)cn6)CC5)CC4)nn3)CC2)cc1Cl (stereo partly drawn) [Compound 30, N-((1R,4R)-4-(3-chloro-4-cyanophenoxy)cyclohexyl)-6-(4-((4-(5-((2,6-dioxopiperidin-3-yl)carbamoyl)pyridin-2-yl)piperazin-1-yl)methyl)piperidin-1-yl)pyridazine-3-carboxamide]
< 1 nM	≥ 70%	N#Cc1ccc(O[C@H]2CC[C@H](NC(=O)c3ccc(N4CCC(CN5CCN(c6ccc(C(=O)NC7CCC(=O)NC7=O)nc6)CC5)CC4)nn3)CC2)cc1Cl (stereo partly drawn) [Compound 22, N-((1R,4R)-4-(3-chloro-4-cyanophenoxy)cyclohexyl)-6-(4-((4-(6-((2,6-dioxopiperidin-3-yl)carbamoyl)pyridin-3-yl)piperazin-1-yl)methyl)piperidin-1-yl)pyridazine-3-carboxamide]
1 to 10 nM	< 50%	Cc1cc(O[C@H]2C(C)(C)[C@H](NC(=O)c3ccc(N4CCO[C@@H](CN5CCN(c6ccc(C(=O)N[C@@H]7CCC(=O)NC7=O)c(F)c6)CC5)C4)cc3)C2(C)C)cc(C)c1C#N [Compound 75, N-[(3R)-2,6-dioxopiperidin-3-yl]-2-fluoro-4-(4-{[(2S)-4-(4-{[(1r,3r)-3-(4-cyano-3,5-dimethylphenoxy)-2,2,4,4-tetramethylcyclobutyl]carbamoyl}phenyl)morpholin-2-yl]methyl}piperazin-1-yl)benzamide]
< 1 nM	< 50%	Cc1cc(O[C@H]2C(C)(C)[C@H](NC(=O)c3ccc(N4CCC(CC5CCN(C67CC(C(=O)NC8CCC(=O)NC8=O)(C6)C7)CC5)CC4)cc3)C2(C)C)cc(C)c1C#N (mixture of isomers) [Compound 70, rac-N-(2,6-dioxopiperidin-3-yl)-3-(4-{[1-(4-{[(1r,3r)-3-(4-cyano-3,5-dimethylphenoxy)-2,2,4,4-tetramethylcyclobutyl]carbamoyl}phenyl)piperidin-4-yl]methyl}piperidin-1-yl)bicyclo[1.1.1]pentane-1-carboxamide]
< 1 nM	≥ 70%	COCCN(C[C@@H]1CN(c2ccc(C(=O)N[C@H]3C(C)(C)[C@H](Oc4cc(C)c(C#N)c(C)c4)C3(C)C)cc2)CCO1)[C@H]1C[C@@H](Oc2ccc(C(=O)N[C@H]3CCC(=O)NC3=O)c(F)c2)C1 [Compound 45, 4-[(2R)-2-{[(2-methoxyethyl)[(1r,3r)-3-(4-{[(3S)-2,6-dioxopiperidin-3-yl]carbamoyl}-3-fluorophenoxy)cyclobutyl]amino]methyl}morpholin-4-yl]-N-[(1r,3r)-3-(4-cyano-3,5-dimethylphenoxy)-2,2,4,4-tetramethylcyclobutyl]benzamide]

SMILES	DC50	Dmax
COc1cc(O[C@H]2C[C@H](OC3CCN(c4ccc(C(=O)N[C@H]5C(C)(C)[C@H](Oc6cc(C)c(C#N)c(C)c6)C5(C)C)cc4)CC3)C2)ccc1C(=O)NC1CCC(=O)NC1=O (stereo partly shown) [Compound 55, N-(2,6-dioxopiperidin-3-yl)-2-methoxy-4-[(1r,3r)-3-{[1-(4-{[(1r,3r)-3-(4-cyano-3,5-dimethylphenoxy)-2,2,4,4-tetramethylcyclobutyl]carbamoyl}phenyl)piperidin-4-yl]oxy}cyclobutoxy]benzamide]	< 1 nM	≥ 70%
Cc1cc(O[C@H]2C(C)(C)[C@H](NC(=O)c3ccc(N4CCC(O[C@H]5C[C@H](Oc6ccc(C(=O)N[C@H]7CCC(=O)NC7=O)c(F)c6)C5)CC4)cc3)C2(C)C)cc(C)c1C#N [Compound 73, N-[(1r,3r)-3-(4-cyano-3,5-dimethylphenoxy)-2,2,4,4-tetramethylcyclobutyl]-4-{4-[(1r,3r)-3-(4-{[(3S)-2,6-dioxopiperidin-3-yl]carbamoyl}-3-fluorophenoxy)cyclobutoxy]piperidin-1-yl}benzamide]	1 to 10 nM	< 50%
